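Values below derive from 48-hour exposures of cells grown in 96-well plates, with endpoints linearly interpolated between the two concentrations bracketing the appropriate inhibition level. At the TGI there is no net growth.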
Columns and labels:
Assay in all cases: NCI-60 cell line screen, 48 h
A498 renal = tested on: A498 renal
ACHN renal = tested on: ACHN renal
COLO 205 colon = tested on: COLO 205 colon
DU-145 prostate = tested on: DU-145 prostate
HCC-2998 colon = tested on: HCC-2998 colon
HS 578T breast = tested on: HS 578T breast
LOX IMVI melanoma = tested on: LOX IMVI melanoma
MCF7 breast = tested on: MCF7 breast
MDA-MB-435 = tested on: MDA-MB-435
NCI-H460 lung = tested on: NCI-H460 lung
PC-3 prostate = tested on: PC-3 prostate
SK-MEL-5 melanoma = tested on: SK-MEL-5 melanoma
SNB-75 CNS = tested on: SNB-75 CNS
UO-31 renal = tested on: UO-31 renal
NCI-H522 lung = tested on: NCI-H522 lung

Structure (SMILES) | TGI (A498 renal) | TGI (ACHN renal) | TGI (COLO 205 colon) | TGI (DU-145 prostate) | TGI (HCC-2998 colon) | TGI (HS 578T breast) | TGI (LOX IMVI melanoma) | TGI (MCF7 breast) | TGI (MDA-MB-435) | TGI (NCI-H460 lung) | TGI (PC-3 prostate) | TGI (SK-MEL-5 melanoma) | TGI (SNB-75 CNS) | TGI (UO-31 renal) | TGI (NCI-H522 lung)
CC[N+]1(C)CCC(O)(/C=C/c2ccc(Cl)cc2)C(C(=O)/C=C/c2ccc(Cl)cc2)C1 (stereo not drawn) | 30.2 µM | 13.6 µM | > 26.5 µM | 27.6 µM | 45.1 µM | > 30.1 µM | > 21.6 µM | > 36.6 µM | 22.4 µM | > 28.2 µM | 27.7 µM | > 45.8 µM | 26.7 µM | 20.2 µM | 
O=Cc1ccc(-c2cccc([N+](=O)[O-])c2)s1 | 53.4 µM | > 100 µM | > 100 µM | > 100 µM | > 100 µM | > 100 µM | > 100 µM | > 100 µM | > 100 µM | > 100 µM | > 100 µM | > 100 µM | > 100 µM | > 100 µM | > 100 µM
COC(=O)CCC(C)C1CCC2C3CCC4CC5CCC4(C)C3(O5)C(Br)C(Br)C12C (stereo not drawn) | > 100 µM | > 100 µM | > 100 µM | > 100 µM | > 100 µM | > 100 µM | > 100 µM | > 100 µM | > 100 µM | > 100 µM | > 100 µM | > 100 µM | > 100 µM | > 100 µM | > 100 µM
Clc1ccc(-c2nc3ccc(C45CC6CC(CC(C6)C4)C5)cc3[nH]2)cc1 | > 100 µM | > 100 µM | 24.3 µM | > 100 µM | > 77.7 µM | > 100 µM | > 100 µM | > 100 µM | > 100 µM | > 90.5 µM | > 100 µM | 60.4 µM | > 100 µM | > 100 µM | > 100 µM
Nc1cccc(C#Cc2cccc(C#Cc3cccc(N)n3)n2)n1 | > 100 µM | > 100 µM | > 100 µM | > 100 µM | > 100 µM | > 100 µM | > 100 µM | > 100 µM | > 100 µM | > 100 µM | > 100 µM | > 100 µM | > 100 µM | > 100 µM | > 100 µM
CC(=O)N1N=C(c2c(O)ccc3ccccc23)CC1c1ccc(Cl)cc1 (stereo not drawn) | 66.3 µM | > 100 µM | 39.2 µM | > 100 µM | 34 µM | 45.1 µM |  | 35.1 µM | 51.9 µM | 48.1 µM | 68.9 µM | 47 µM | > 100 µM | 93.4 µM | > 100 µM
O=C1C(=C(C(=O)c2ccccc2)C(=O)c2ccccc2)OC(c2ccccc2)=C1C(=O)c1ccccc1 | 44.2 µM | 20.1 µM | 25.7 µM | 48.8 µM | 27.6 µM | 54.3 µM | 18.5 µM | 29.7 µM | 35.4 µM | 19.2 µM | > 100 µM | 25 µM |  | 26.7 µM | 19.5 µM
COc1ccc(/C=C2\CN(C)CC3C2=NC(=S)NC3c2ccc(OC)cc2)cc1 (stereo not drawn) | 26.3 µM | > 100 µM | > 39.3 µM | 26.4 µM | > 100 µM | > 100 µM | > 100 µM | > 100 µM | 7.86 µM | 59.8 µM | > 50 µM | > 100 µM |  | > 100 µM | > 20.8 µM
O=C(n1c(=O)n(-c2ccc(Cl)cc2)c(=O)n1C(=O)C(Cl)(Cl)Cl)C(Cl)(Cl)Cl | > 100 µM | > 100 µM | > 100 µM | > 100 µM | > 100 µM | > 100 µM | > 100 µM | > 100 µM | > 100 µM | > 100 µM | > 100 µM | > 100 µM |  | > 100 µM | > 100 µM
CC(C)c1nc2c(Cl)c3ncccc3cc2[nH]c1=O | > 100 µM | > 100 µM | > 100 µM | > 100 µM |  | > 100 µM |  | > 100 µM | > 100 µM | > 100 µM | > 100 µM | > 100 µM | > 100 µM | > 100 µM | > 100 µM
CCN1C[C@]2(C)CC[C@H](OCc3ccccc3)C34C5C[C@@H]6CC[C@](O)(C(C[C@@H]32)C14)C5[C@H]6OCc1ccccc1 (stereo partly drawn) | > 100 µM | > 100 µM | > 100 µM | > 100 µM | > 100 µM | > 100 µM | > 100 µM | > 100 µM | > 100 µM | > 100 µM | > 100 µM | > 100 µM | > 100 µM | > 100 µM | 
O=CC1C[C@@H](N2C(=O)O[C@@H](c3ccccc3)[C@H]2c2ccccc2)[C@@H]1COCc1ccccc1 (stereo partly drawn) | 49.2 µM | 73.2 µM | 42 µM | 35.7 µM | 34.9 µM | 72.3 µM | 38.6 µM | 55.1 µM | 51.4 µM | 41.7 µM | 43.1 µM | 29.1 µM |  | 29.3 µM | 34 µM
O=C(/C=C(\O)c1ccc(Cl)cc1)C(=O)NN=C(c1ccccc1)c1ccccc1 | 47.2 µM | > 100 µM | 74.4 µM | > 100 µM | > 100 µM | 85.3 µM |  | > 100 µM | > 100 µM | 31.3 µM | > 100 µM | > 100 µM | > 100 µM | 90.4 µM | 49 µM
CO/N=C(/C(=O)OC)c1ccccc1COc1cccc(C(F)(F)F)c1 | > 100 µM | > 100 µM | > 100 µM | > 100 µM |  | > 100 µM | > 100 µM | 85.1 µM | > 100 µM | > 100 µM | > 100 µM | 17.9 µM | > 100 µM | > 100 µM | 70.2 µM
Cc1ccc(CCCCCOc2ccc(C3=NCCO3)cc2)s1 | 4.47 µM | > 100 µM | > 100 µM | > 100 µM | > 100 µM | > 100 µM |  | > 100 µM | > 100 µM | > 100 µM | > 100 µM | > 100 µM | > 100 µM | > 100 µM | > 100 µM

— PubChem BioAssay (NCI)
